Experimental data taken from patent publication US8173618B2, “Formulations for reducing neuronal degeneration” (University of Massachusetts, priority 2003, dated 2012).
“Also recorded” adds a separate entry of the source.

Tests used:
SH-SY-5Y cells [1] = experiment: Homocysteine-induced apoptosis, meracyanine staining of externalized PS; format: cell-based, human
Experimental: FIG. 20 is a bar graph that depicts the results of experiments in which […] were treated with 250 μM homocysteine with or without 100 μM SAM, after which cultures were monitored for externalized PS via meracyanine staining as an indication of apoptosis. Values represent the mean (±standard error of the mean) in arbitrary densitometric units derived from densitometric analyses of 10-50 neurons from two cultures under each condition from two separate independent experiments.
(§1) Levels of externalized phosphatidylserine (PS) were used as a measure of apoptosis (Rimon et al., 1997, J. Neurosci. Res., 48:563-570). Briefly, cultures were subjected to treatments then rinsed with PBS and incubated with 10 μl/ml merocyanine (Upstate Biotech, Lake Placid, N.Y.), followed by examination under rhodamine optics (Ekinci et al, 1999, J. Biol. Chem., 274:30322-30327).
Homocysteine induces apoptosis in cultured cells. To investigate the effect of SAM on HC-induced apoptosis, 100 μM SAM and homocysteine were added to cultured SH-SY-5Y cells and apoptosis was monitored by meracyanine staining to detect the externalization of PS.

[2] = reported; cited from earlier work
[3] = test system: differentiated SH-SY-5Y cells; experiment: Intracellular ROS by DCFD fluorescence in differentiated SH-SY-5Y cells; format: cell-based, human; settings: for increase in ROS resulting from folate deprivation: simultaneously with folate deprivation; for ROS: single agent, control cells and cells exposed to Abeta; for increase in ROS: 20 μM Abeta25-35 two hours
Experimental: Cultured cells were used to test individual agents and formulations. In general, SH-SY-5Y human neuroblastoma cells were cultured in DMEM (Cellgro) containing 10% fetal bovine serum in 5% CO2.
For treatments with Abeta, differentiated cultures were transferred to medium without serum and treated for two hours with 20 μM Abeta25-35 (Sigma Chemical Co., St. Louis, Mo.). […] Louis, Mo.). In experiments calling for treatment of cell cultures with N-acetyl cysteine (NAC; NALC), cultures were treated with 10 mM NAC (Sigma Chemical Co., St. Louis, Mo.) after the culture was grown for two hours in serum-free medium.
(§2) Intracellular reactive oxygen species (ROS) were monitored as described in Ekinci et al., 1999 (J. Biol. Chem., 274:30322-30327). Briefly, cells were incubated for 30 minutes with dichloro-fluorescein diacetate (DCFD; acetoxymethyl ester; Molecular Probes, Inc., Eugene, Oreg.), which is used to detect intracellular peroxide levels. Incubation was followed by rinsing of cultures in serum-free medium and immediate capture of images using UV optics. Images were captured under epifluorescent and phase-contrast illumination using a DAGE CCL-72 cooled CCD camera via a Scion LG-3 frame grabber operated by NIH Image (see the Internet at rsb.info.nih.gov/nih-image). Images were then stored as PICT files on a Macintosh Power PC 7100AV for subsequent analysis. At least 100 cells in randomly-selected fields from duplicate cultures derived from multiple experiments were scored for fluorescent intensity using NIH Image analysis software. Representative background areas devoid of cells were similarly analyzed and subtracted from cell values to yield net densitometric values. All fields for each individual assay were illuminated, captured, and processed under identical settings. Corresponding phase-contrast images were obtained. Cell aggregates were excluded from the assays; only individual cells were quantified. Values were exported to Excel for statistical analyses using Student's t test.
For monitoring of intracellular peroxide concentrations as an index of ROS, cultures received 10 μl/ml DFCD (2′7′-dichlorofluorescein diacetate; Kodak) for 20 minutes. Cultures were then visualized under fluorescein UV optics (perikaryon; Ekinci and Shea, 1999, supra).

SH-SY-5Y cells [4] = experiment: HPLC analysis of glutathione and thiols in SH-SY-5Y cells; format: cell-based, human; settings: NAC treatment in the absence of folate
Experimental: (§3) Glutathione levels were quantified in homogenates of SH-SY-5Y cells. Cultures were rinsed twice with Tris-buffered saline (TBS), scraped from the plate in a small volume of TBS and homogenized on ice. Medium was also utilized for analysis of HCY along with cellular lysates, since HCY is normally exported from cells. Homogenates (100 μl) were reduced by mixing with 50 μl of 100 μM N-acetylcysteine or with 30 μl of 30 μM cystamine (as an internal standard) and 10 μl of tri-carboxyethylphosphine (100 mg/ml in 0.05 M HCl). Samples were vortexed, incubated at room temperature for 30 minutes, then centrifuged at 10,000×g for 10 minutes. 80 μl of the resulting supernatant were combined with 160 μl of 2 M boric acid/4 mM EDTA (pH 10.5), followed by 80 μl of 1.0 mg/ml SBDF [7-fluorobenzo-2-oxa-1,3-diazole-4-sulfonate] in boric acid/EDTA buffer). Samples were mixed, incubated for 60 minutes at 60° C., equilibrated to reach temperature, and 50 μl of the sample was then injected into a Hewlett Packard model 1090 HPLC, which is used with a 1046A fluorescence detector and a Hewlett Packard 4.6×60 mm high-speed analytical column packed with 3 μM ODs (C18) Hypersil silica. The mobile phase consisted of methanol/0.2 M acetate buffer pH 4.0 (2/98 by volume). Glutathione concentrations were then determined by comparison of peak area ratios of glutathione to the internal standard N-acetylcysteine in the sample compared to peak areas obtained for a glutathione standard curve. Samples were derived from 3-4 normal and 3-4 ApoE−/− mice for each dietary condition, from ≧2 independent experiments (total n≧6 for each diet for both experiments).
NAC directly scavenges ROS and also provide a source of intracellular cysteine for synthesis of glutathione during conditions of oxidative stress. […] Differentiated SH-SY-5Y cells with and without NAC treatment were subjected to HPLC along with 50 μM each of multiple thiol standards (“Standards”) as indicated in FIGS. 18A to 18C.

SH-SY-5Y cells [5] = experiment: HPLC of homocysteine in SH-SY-5Y cell lysates and medium; format: cell-based, human; settings: 25 μM DZA during folate deprivation
Experimental: as §3
Medium was then decanted, cells were scraped from the plate and homogenized, and medium and cellular lysates, along with an aliquot of fresh medium that had not been in contact with cells, were subjected to HPLC analyses.

cortical neurons = experiment: Intracellular ROS by DCFD fluorescence in cortical neurons; format: cell-based, mice; settings: folate-deficient medium two hours, 0.15 mg/ml vitamin E as alpha-tocopherol
Experimental: as §2, with “Ekinci” left out, “test. […]” for “test.”

normal and ApoE−/− mice = experiment: TBAR analysis of brain oxidative damage in mice on dietary regimens; format: in vivo; settings: deficiency in vitamin E alone
Text: Damage resulting from the generation of intracellular reactive oxygen species can also be quantified using a TBAR assay (Ohkawa et al., Anal. Biochem., 95:351-358, 1979). This method is used to determine cellular lipid hydroperoxides in cultured cells by thiobarbituric acid reaction. Lipid hydroperoxides break down to malondialdehyde and other aldehydes. These react with thiobarbituric acid in a mildly acidic environment, which results in formation of a chromophore. The resulting chromophore is measured by light absorption or fluorescence techniques.
After one month, total brain tissue was harvested and subjected to TBAR analyses as described in Wittaker et al. (1996, supra).
Additional mice received the deficient diet supplemented with DZA (0.4 g/kg total diet weight), SAM (80 mg/kg diet weight) and NAC (1 g/kg diet weight). Total brain tissue was harvested and analyzed for TBARs.

[6] = test system: differentiated SH-SY-5Y cells; experiment: ATP levels in Abeta-treated SH-SY-5Y cells; format: cell-based, human
Experimental: FIG. 11 is a bar graph showing the results of experiments examining apoptosis in which differentiated SH-SY-5Y cells cultured in the presence or absence of Abeta, with or without ALCAR for two hours, and assayed for ATP using spectrophotometric methods known in the art.
(§4) The effect of ALCAR on differentiated SH-SY-5Y cells treated with Abeta was examined. Cells were cultured in 20 μM Abeta in the presence and absence of ALCAR. Some cultures were pretreated with 50 μM ALCAR for 30 minutes. In these experiments, the ALCAR-containing medium was replaced with medium containing Abeta and no ALCAR then incubated for two hours before being assayed. Cultures were assayed for ROS, apoptosis, and ATP.

[7] = test system: differentiated SH-SY-5Y cells; experiment: Externalized phosphatidylserine (meracyanine fluorescence) as index of apoptosis in SH-SY-5Y cells; format: cell-based, human; settings: co-treatment with 50 μM ALCAR, 20 μM Abeta
Experimental: as §1
The question of whether folate deficiency is associated with apoptosis was investigated. […] Overall detachment, a further sign of cell death, was evident by the seventh day in the serum-deprived cultures. The detachment phenomenon precluded longer experiments.
as §4

[8] = no folate + 25 μM DZA, two hours

N[C@@H](CCS)C(=O)O [Homocysteine, homocysteine]
externalization of PS (SH-SY-5Y cells [1]; homocysteine, 2 and 24 hours): progressively induced externalization of PS

CC(=O)N[C@@H](CS)C(=O)O [NAC, N-acetyl cysteine]
entry into the CNS [2]: reported to enter or have effects in the CNS
increase in ROS resulting from folate deprivation ([3]; 1 mM NAC, two hours): prevented the increase in ROS
increase in ROS resulting from folate deprivation ([3]; 10 mM NAC, two hours): prevented the increase in ROS
ROS induced by Abeta ([3]; NAC (10 mM) applied 15 minutes after Abeta): quenched ROS
intracellular cysteine (HPLC) (SH-SY-5Y cells [4]): marked increase
intracellular glutathione (HPLC) (SH-SY-5Y cells [4]): marked increase

Nc1nccc2c1ncn2[C@@H]1O[C@H](CO)[C@@H](O)[C@H]1O [DZA, 3-deazaadenosine]
HCY formation and export (SH-SY-5Y cells [5]): prevented HCY formation and export to a level below that observed in cultures receiving folate
attenuation of the increase in ROS from folate deprivation ([3]; 25 μM DZA during folate deprivation): approximately 50%
attenuation of the increase in ROS from folate deprivation ([3]; 25 μM DZA simultaneously with folate deprivation): attenuated the increase in ROS by slightly more than half
ROS % increase vs. control [3, 8]: 16%
ROS Mean ± SEM [3, 8]: 8.8 ± 0.3

Cc1c(C)c2c(c(C)c1O)CC[C@@](C)(CCC[C@H](C)CCC[C@H](C)CCCC(C)C)O2 [vitamin E, alpha-tocopherol]
ROS generation during folate deprivation (cortical neurons): not prevented
ROS induction by Abeta ([3]; additional experiments, vitamin E): prevented
ROS ([3]; two hours): reduced ROS
ROS induced by Abeta ([3]; vitamin E (0.15 ng/mL) applied 15 minutes after Abeta): efficacy of vitamin E was markedly reduced; also recorded: but not vitamin E, quenched ROS
ROS induced by Abeta ([3]; vitamin E (0.15 ng/mL) provided simultaneously with Abeta, two hours): approximately identical to that of control cells
ROS in brain (TBAR) (normal and ApoE−/− mice; ApoE−/− knockout mice): did increase ROS
ROS in brain (TBAR) (normal and ApoE−/− mice; iron-fed normal mice): did not increase ROS

Abeta: beta-amyloid fragment of the amyloid precursor protein; Abeta25-35 (Sigma) used at 20 μM (GSNKGAIIGLM; Amyloid-beta protein 42; UniProt P05067 696-706, looked up, fragment)
cellular ATP ([6]; 20 μM Abeta): reduced cellular ATP
increase in ROS ([3]; folate-deprived cells): 144±10%
increase in ROS ([3]; in the presence of folate): 34±4%

CC(=O)O[C@H](CC(=O)[O-])C[N+](C)(C)C [ALCAR, acetyl-L-carnitine]
Abeta-induced reduction in ATP levels ([6]; co-treatment and prior treatment with 50 μM ALCAR): prevented this reduction in ATP levels
effect of Abeta on ROS generation ([3]; co-treatment with 50 μM ALCAR, 20 μM Abeta): reduced the effect of Abeta on ROS generation
Abeta neurotoxicity (ROS, apoptosis) ([3]; pretreatment with 50 μM ALCAR for 30 minutes, followed by its removal): effective at preventing Abeta neurotoxicity
ROS ([3]; two hours): reduced ROS
effect of Abeta on apoptosis [7]: reduced

C[S+](CC[C@H](N)C(=O)O)C[C@H]1O[C@@H](n2cnc3c(N)ncnc32)[C@H](O)[C@@H]1O (stereo partly shown) [SAM, S-adenosyl methionine]
homocysteine-induced PS externalization (SH-SY-5Y cells [1]; 100 μM SAM, 2 hours): prevented PS externalization
reduction of homocysteine-induced PS externalization (SH-SY-5Y cells [1]; 100 μM SAM, 24 hours): approximately 50%
entry into the CNS [2]: reported to enter or have effects in the CNS
increase in ROS generated by folate deprivation ([3]; 100 μM SAM, two hours): attenuation of the increase in ROS; also recorded: reduced ROS levels to a greater extent than did incubation of cells in the presence of folate
